Measurements published in ChEMBL document CHEMBL5055629, “Design and synthesis of Grp94 selective inhibitors based on Phe199 induced fit mechanism and their anti-inflammatory effects” (Eur J Med Chem, 2021).
In brackets after ≈: the same amount, converted by molar mass.

Assays:
Endoplasmin [1] = molecular target: T1, Endoplasmin (Canis lupus familiaris, UniProt P41148); assay: Inhibition of GST-tagged dog GRP94 (69 to 337 residues) expressed in Escherichia coli BL21 (DE3) measured after 4 hrs by fluorescent polarization assay
[2] = Lipophilicity, logD of compound at pH 7.4; format: physicochemical; details: buffer
[3] = Aqueous solubility of compound; format: physicochemical; details: buffer
[4] = Permeability of compound at pH 7.4; format: ADME; details: not told, read-out: permeability
[5] = Apparent volume of distribution in Sprague-Dawley rat at 40 mg/kg, po measured after 24 hrs by LC-MS/MS analysis; format: ADME, organism-based; details: in vivo
[6] = molecular target: T2, Heat shock protein HSP 90-alpha (Homo sapiens, UniProt P07900); details: dose 1.1-30 µM
Description: Binding affinity to His-tagged human N-terminal HSP90alpha (1 to 236 residues) expressed in Escherichia coli BL21 (DE3) assessed as association constant at 1.1 to 30 uM measured by BLI assay

[7] = Oral bioavailability in Sprague-Dawley rat at 40 mg/kg measured after 24 hrs by LC-MS/MS analysis; format: ADME, organism-based; details: in vivo
Mus musculus [8] = assay: Anti-ulcerative colitis activity against DSS-induced Ulcerative colitis C57BL/6 mouse model assessed as disease activity index at 10 mg/kg, ip measured for 8 days (reference value: 8.37+/-0.3); format: functional; details: time 8 day
Mus musculus [9] = assay: Anti-ulcerative colitis activity against DSS-induced Ulcerative colitis C57BL/6 mouse model assessed as disease activity index at 30 mg/kg, ip measured for 8 days (reference value: 8.37+/-0.3); format: functional; details: time 8 day
Mus musculus [10] = assay: Toxicity in DSS-induced Ulcerative colitis C57BL/6 mouse model assessed as effect on liver weight index at 10 to 50 mg/kg, ip measured after 8 days; details: in vivo, 192 h
[11] = AUC (0 to infinity) in Sprague-Dawley rat at 40 mg/kg, po measured after 24 hrs by LC-MS/MS analysis; format: ADME, organism-based; design: dose 40 mg/kg, time 24 hrs, route po; details: in vivo
[12] = Metabolic stability in human microsomes assessed as half life in presence of NADPH at 10 uM measured after 120 mins by LC-MS/MS analysis; format: ADME, Microsome
[13] = Cmax in Sprague-Dawley rat at 40 mg/kg, po measured after 24 hrs by LC-MS/MS analysis; format: ADME, organism-based; design: time 24 hrs, dose 40 mg/kg, route po; details: in vivo
[14] = Tmax in Sprague-Dawley rat at 10 mg/kg, iv measured after 24 hrs by LC-MS/MS analysis; format: ADME, organism-based; details: in vivo
[15] = AUC (0 to infinity) in Sprague-Dawley rat at 10 mg/kg, iv measured after 24 hrs by LC-MS/MS analysis; format: ADME, organism-based; design: dose 10 mg/kg, time 24 hrs, route iv; details: in vivo
Mus musculus [16] = assay: Anti-ulcerative colitis activity against DSS-induced Ulcerative colitis C57BL/6 mouse model assessed as disease activity index at 50 mg/kg, ip measured for 8 days (reference value: 8.37+/-0.3); format: functional; details: time 8 day
Mus musculus [17] = assay: Toxicity in DSS-induced Ulcerative colitis C57BL/6 mouse model assessed as loss of body weight at 10 to 50 mg/kg, ip measured for 9 days; format: organism-based; details: in vivo, 216 h, dose 10-50 mg/kg, time 9 day
[18] = Metabolic stability in human microsomes assessed as clearance in presence of NADPH at 10 uM measured after 120 mins by LC-MS/MS analysis; format: ADME, Microsome; details: 2 h
[19] = molecular target: Endoplasmin (Canis lupus familiaris) (UniProt P41148); details: dose 0.37-10 µM
Description: Binding affinity to GST-tagged dog GRP94 (69 to 337 residues) expressed in Escherichia coli BL21 (DE3) assessed as association constant at 0.37 to 10 uM measured by BLI assay

[20] = Half life in Sprague-Dawley rat at 10 mg/kg, iv measured after 24 hrs by LC-MS/MS analysis; format: ADME, organism-based; details: in vivo
Endoplasmin [21] = molecular target: T1, Endoplasmin; assay: Binding affinity to GST-tagged dog GRP94 (69 to 337 residues) expressed in Escherichia coli BL21 (DE3) assessed as dissociation rate constant at 0.37 to 10 uM measured by BLI assay
[22] = Tmax in Sprague-Dawley rat at 40 mg/kg, po measured after 24 hrs by LC-MS/MS analysis; format: ADME, organism-based; details: in vivo
[23] = Apparent volume of distribution in Sprague-Dawley rat at 10 mg/kg, iv measured after 24 hrs by LC-MS/MS analysis; format: ADME, organism-based; details: in vivo
[24] = Half life in Sprague-Dawley rat at 40 mg/kg, po measured after 24 hrs by LC-MS/MS analysis; format: ADME, organism-based; details: in vivo
[25] = Metabolic stability in mouse microsomes assessed as clearance in presence of NADPH at 10 uM measured after 120 mins by LC-MS/MS analysis; format: ADME, Microsome; details: 2 h
[26] = Clearance in Sprague-Dawley rat at 40 mg/kg, po measured after 24 hrs by LC-MS/MS analysis; format: ADME, organism-based; details: in vivo
[27] = Cmax in Sprague-Dawley rat at 10 mg/kg, iv measured after 24 hrs by LC-MS/MS analysis; format: ADME, organism-based; design: dose 10 mg/kg, time 24 hrs, route iv; details: in vivo
[28] = Clearance in Sprague-Dawley rat at 10 mg/kg, iv measured after 24 hrs by LC-MS/MS analysis; format: ADME, organism-based; details: in vivo
[29] = Metabolic stability in mouse microsomes assessed as half life in presence of NADPH at 10 uM measured after 120 mins by LC-MS/MS analysis; format: ADME, Microsome
[30] = molecular target: T2, Heat shock protein HSP 90-alpha; assay: Binding affinity to His-tagged human N-terminal HSP90alpha (1 to 236 residues) expressed in Escherichia coli BL21 (DE3) assessed as dissociation rate constant at 1.1 to 30 uM measured by BLI assay
[31] = molecular target: T2, Heat shock protein HSP 90-alpha; assay: Binding affinity to Hsp90alpha (unknown origin) by fluorescent polarization assay
Endoplasmin [32] = molecular target: Endoplasmin (Homo sapiens, UniProt P14625); assay: Binding affinity to Grp94 (unknown origin) by fluorescent polarization assay
Chain of Endoplasmin (Homo sapiens, UniProt P14625) (P14625 whole entry): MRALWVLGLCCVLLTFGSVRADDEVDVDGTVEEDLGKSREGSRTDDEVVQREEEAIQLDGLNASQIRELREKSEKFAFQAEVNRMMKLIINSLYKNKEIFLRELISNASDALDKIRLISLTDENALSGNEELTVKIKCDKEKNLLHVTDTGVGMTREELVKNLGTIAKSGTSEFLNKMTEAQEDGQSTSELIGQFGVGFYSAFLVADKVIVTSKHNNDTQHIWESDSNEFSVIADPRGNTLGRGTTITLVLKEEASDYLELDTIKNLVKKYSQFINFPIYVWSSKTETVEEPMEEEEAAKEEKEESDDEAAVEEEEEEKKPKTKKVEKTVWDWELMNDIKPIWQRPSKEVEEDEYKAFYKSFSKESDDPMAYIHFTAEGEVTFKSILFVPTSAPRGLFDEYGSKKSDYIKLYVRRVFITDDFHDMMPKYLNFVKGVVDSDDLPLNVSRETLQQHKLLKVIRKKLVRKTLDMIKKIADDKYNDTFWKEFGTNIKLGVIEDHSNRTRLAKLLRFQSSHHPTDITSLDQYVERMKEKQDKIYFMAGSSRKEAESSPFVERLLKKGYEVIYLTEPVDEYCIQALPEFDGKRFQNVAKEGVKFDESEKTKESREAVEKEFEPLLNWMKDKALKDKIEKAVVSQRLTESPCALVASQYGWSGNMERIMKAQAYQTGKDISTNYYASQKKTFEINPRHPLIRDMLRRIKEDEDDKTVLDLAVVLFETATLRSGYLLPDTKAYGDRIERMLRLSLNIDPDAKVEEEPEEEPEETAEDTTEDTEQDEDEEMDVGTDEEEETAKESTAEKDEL

T1 sequence (P41148 whole entry, the tested form may be a part): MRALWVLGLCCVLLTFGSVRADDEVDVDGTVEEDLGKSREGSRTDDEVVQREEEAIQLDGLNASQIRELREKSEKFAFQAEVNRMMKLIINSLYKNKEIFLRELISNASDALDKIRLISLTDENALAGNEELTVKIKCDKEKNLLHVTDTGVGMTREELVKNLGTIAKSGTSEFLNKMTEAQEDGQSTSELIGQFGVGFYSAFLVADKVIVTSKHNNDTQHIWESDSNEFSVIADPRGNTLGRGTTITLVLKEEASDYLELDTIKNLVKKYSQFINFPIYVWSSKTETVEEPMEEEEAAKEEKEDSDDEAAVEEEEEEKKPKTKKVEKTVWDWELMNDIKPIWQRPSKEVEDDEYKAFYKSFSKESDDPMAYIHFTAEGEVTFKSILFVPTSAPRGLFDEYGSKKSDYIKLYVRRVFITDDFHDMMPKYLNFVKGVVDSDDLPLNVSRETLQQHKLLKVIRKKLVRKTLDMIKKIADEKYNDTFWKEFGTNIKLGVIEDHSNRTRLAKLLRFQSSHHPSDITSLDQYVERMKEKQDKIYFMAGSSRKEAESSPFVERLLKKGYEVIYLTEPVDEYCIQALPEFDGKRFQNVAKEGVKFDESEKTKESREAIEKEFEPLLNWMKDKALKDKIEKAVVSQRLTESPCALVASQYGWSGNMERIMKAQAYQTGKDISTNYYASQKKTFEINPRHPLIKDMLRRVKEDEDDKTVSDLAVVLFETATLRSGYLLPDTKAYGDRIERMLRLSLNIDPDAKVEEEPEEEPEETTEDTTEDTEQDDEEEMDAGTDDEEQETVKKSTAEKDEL
Chain of Endoplasmin (Canis lupus familiaris) (P41148 whole entry): as the sequence (P41148 whole entry, the tested form may be a part) above

NC(=O)c1cc(C#CC2CCCCC2)ccc1N[C@H]1CC[C@H](O)CC1
IC50 (Endoplasmin [1]): 210 nM

CCCCC#Cc1ccc(NC2CCCNC2)c(C(N)=O)c1 (stereo not drawn)
IC50 (Endoplasmin [1]): 627 nM

CCCCC#Cc1ccc(NCCO)c(C(N)=O)c1
IC50 (Endoplasmin [1]): 6840 nM

CC(C)CCC#Cc1ccc(N[C@H]2CC[C@H](O)CC2)c(C(N)=O)c1
IC50 (Endoplasmin [1]): 519 nM

CCCCC#Cc1ccc(NCC2CCOC2)c(C(N)=O)c1 (stereo not drawn)
IC50 (Endoplasmin [1]): 947 nM

CCCCC#Cc1ccc(NC2CCNCC2)c(C(N)=O)c1
IC50 (Endoplasmin [1]): 1610 nM

CCCCC#Cc1ccc(NCCOC)c(C(N)=O)c1
IC50 (Endoplasmin [1]): 10900 nM

CCCCC#Cc1ccc(NC2CCN(C(=O)CN3CCOCC3)CC2)c(C(N)=O)c1
IC50 (Endoplasmin [1]): 1490 nM

CC(C)c1cc(C(=O)N2Cc3ccc(CN4CCN(C)CC4)cc3C2)c(O)cc1O [ONALESPIB]
IC50 (Endoplasmin [1]): 13 nM

CC(C)CC#Cc1ccc(N[C@H]2CC[C@H](O)CC2)c(C(N)=O)c1
IC50 (Endoplasmin [1]): 313 nM

CCCCC#Cc1ccc(NC2CCCN(C(C)=O)C2)c(C(N)=O)c1 (stereo not drawn)
IC50 (Endoplasmin [1]): 2040 nM

CCCCC#Cc1ccc(NC2CCN(C(C)=O)CC2)c(C(N)=O)c1
IC50 (Endoplasmin [1]): 203 nM | logD [2]: 3.24 | solubility [3]: 16 µg/mL (≈ 46.9 µM) | Papp [4]: 94.6 ×10⁻⁶ cm/s

CCCCC#Cc1ccc(NCCCO)c(C(N)=O)c1
IC50 (Endoplasmin [1]): 2770 nM

CCCCC#Cc1ccc(N[C@H]2CC[C@H](O)CC2)c(C(N)=O)c1
Vz [5]: 2.81 L/kg | Ka [6]: 1.22 10^5/M/s | bioavailability [7]: 15.7% | Activity_index (Mus musculus [8]): 3.04 | Activity_index (Mus musculus [9]): 2.3 | Activity (Mus musculus [10]): Non-Toxic | AUC [11]: 0.95 µg/mL/h | half-life at 10 µM [12]: 5.78 h | Cmax [13]: 600 ng/mL | IC50 (Endoplasmin [1]): 60 nM | Tmax [14]: 3 min | AUC [15]: 1.51 µg/mL/h | Activity_index (Mus musculus [16]): 1.76 | Activity (Mus musculus [17]): Non-Toxic | CL [18]: 12.8 µL/min/mg | Ka [19]: 2.56 10^5/M/s | t1/2 [20]: 15.25 h | koff (Endoplasmin [21]): 2.84 10^-2/s | logD [2]: 3.69 | Tmax [22]: 0.38 h | Vz [23]: 1.47 L/kg | t1/2 [24]: 4.69 h | CL [25]: 11 µL/min/mg | CL [26]: 72.8 mL/min/kg | solubility [3]: 11 µg/mL (≈ 35 µM) | Cmax [27]: 2410 ng/mL | CL [28]: 111 mL/min/kg | half-life at 10 µM [29]: 1.8 h | koff [30]: 1.14 10^-2/s | Papp [4]: 97.9 ×10⁻⁶ cm/s

CC(C)C#Cc1ccc(N[C@H]2CC[C@H](O)CC2)c(C(N)=O)c1
IC50 (Endoplasmin [1]): 914 nM

CCCCC#Cc1ccc(NCC2CCN(C(C)=O)CC2)c(C(N)=O)c1
IC50 (Endoplasmin [1]): 4780 nM

CCCCC#Cc1ccc(NC2CCOC2)c(C(N)=O)c1 (stereo not drawn)
IC50 (Endoplasmin [1]): 310 nM

NC(=O)c1cc(C#CC2CC2)ccc1N[C@H]1CC[C@H](O)CC1
IC50 (Endoplasmin [1]): 251 nM

CC(C)NCCCn1c(Sc2cc(Cl)cc(Cl)c2)nc2c(N)ncnc21
Kd [31]: > 250000 nM | Kd (Endoplasmin [32]): 220 nM

CCCCC#Cc1ccc(NC2CCN(C(=O)CCN3CCOCC3)CC2)c(C(N)=O)c1
IC50 (Endoplasmin [1]): 985 nM

CCCCC#Cc1ccc(NC2CCN(C(=O)C3CC3)CC2)c(C(N)=O)c1
IC50 (Endoplasmin [1]): 528 nM

CCCCC#Cc1ccc(NC2CCN(C(=O)CC3CC3)CC2)c(C(N)=O)c1
IC50 (Endoplasmin [1]): 797 nM

CCCCC#Cc1ccc(NCCNC(C)=O)c(C(N)=O)c1
IC50 (Endoplasmin [1]): 2020 nM

CCCCC#Cc1ccc(NC2CCOCC2)c(C(N)=O)c1
IC50 (Endoplasmin [1]): 234 nM

NC(=O)c1cc(C#CCCCCl)ccc1N[C@H]1CC[C@H](O)CC1
IC50 (Endoplasmin [1]): 205 nM

CCCCC#Cc1ccc(NC2CCN(C(=O)CN(C)C)CC2)c(C(N)=O)c1
IC50 (Endoplasmin [1]): 1110 nM

CC(C)c1ccc(-c2ccc(N[C@H]3CC[C@H](O)CC3)c(C(N)=O)c2)cc1
half-life at 10 µM [12]: 4.28 h | IC50 (Endoplasmin [1]): 20 nM | CL [18]: 25.5 µL/min/mg | logD [2]: 4.59 | CL [25]: 13.5 µL/min/mg | solubility [3]: 3.9 µg/mL (≈ 11.1 µM) | half-life at 10 µM [29]: 1.04 h | Papp [4]: 99.2 ×10⁻⁶ cm/s

CN(C)CC#Cc1ccc(N[C@H]2CC[C@H](O)CC2)c(C(N)=O)c1
IC50 (Endoplasmin [1]): 62600 nM

CCN(CC)CC#Cc1ccc(N[C@H]2CC[C@H](O)CC2)c(C(N)=O)c1
IC50 (Endoplasmin [1]): > 100000 nM

CCOc1ccccc1Cn1ccnc1CCc1c(Cl)c(O)cc(O)c1C(=O)OC
Kd [31]: 8200 nM

CCCCC#Cc1ccc(NCCCOCC)c(C(N)=O)c1
IC50 (Endoplasmin [1]): 3310 nM

CCCCC#Cc1ccc(NCCCOC)c(C(N)=O)c1
IC50 (Endoplasmin [1]): 2060 nM

CCCCC#Cc1ccc(NCCOCC)c(C(N)=O)c1
IC50 (Endoplasmin [1]): 7540 nM

CC(C)(C)C#Cc1ccc(N[C@H]2CC[C@H](O)CC2)c(C(N)=O)c1
IC50 (Endoplasmin [1]): 325 nM

CCCCC#Cc1ccc(NCC2CCNCC2)c(C(N)=O)c1
IC50 (Endoplasmin [1]): 16600 nM

NC(=O)c1cc(C#CC2CCCC2)ccc1N[C@H]1CC[C@H](O)CC1
IC50 (Endoplasmin [1]): 100 nM

CCCCC#Cc1ccc(NCC2CCOCC2)c(C(N)=O)c1
IC50 (Endoplasmin [1]): 393 nM

CCCCC#Cc1ccc(NCC2CCN(C(=O)C3CC3)CC2)c(C(N)=O)c1
IC50 (Endoplasmin [1]): 2410 nM
